The molecules below were run on ATF4 luciferase reporter in HEK293T cells (assay: ATF4-Luc assay (in vitro model of VWMD)). Conditions: HEK293T cells carrying the ATF4 luciferase reporter, 1 μg/mL tunicamycin, 7 hours, One Glo luminescence.
Type: cell-based, human
Procedure: In order to test exemplary compounds of the invention in a cellular context, a stable VWMD cell line was first constructed. The ATF4 reporter was prepared by fusing the human full-length ATF4 5′-UTR (NCBI Accession No. BC022088.2) in front of the firefly luciferase (FLuc) coding sequence lacking the initiator methionine as described in Sidrauski et al (eLife 2013). The construct was used to produce recombinant retroviruses using standard methods and the resulting viral supernatant was used to transduce HEK293T cells, which were then subsequently selected with puromycin to generate a stable cell line.
HEK293T cells carrying the ATF4 luciferase reporter were plated on polylysine coated 384-well plates (Greiner Bio-one) at 30,000 cells per well. Cells were treated the next day with 1 μg/mL tunicamycin and 200 nM of a compound of Formula (I) for 7 hours. Luminescence was measured using One Glo (Promega) as specified by the manufacturer. Cells were maintained in DMEM with L-glutamine supplemented with 10% heat-inactivated FBS (Gibco) and Antibiotic-Antimycotic solution (Gibco).
Table 4 below summarizes the EC50 data obtained using the ATF4-Luc assay for exemplary compounds of the invention.

Molecule `O=C(COc1ccc(Cl)c(F)c1)NC12CC(n3cc(OCCOC(F)(F)F)cn3)(C1)C2` [Compound 617, 2-(4-chloro-3-fluorophenoxy)-N-(3-{4-[2-(trifluoromethoxy)ethoxy]-1H-pyrazol-1-yl}bicyclo[1.1.1]pentan-1-yl)acetamide] has an EC50 of less than 10 nM.

Same assay, conditions: Homo sapiens, HEK-293T, 7 h, HEK293T cells carrying the ATF4 luciferase reporter, 1 μg/mL tunicamycin, One Glo luminescence

`O=C(NC12CC(n3cc(OCCOC(F)(F)F)cn3)(C1)C2)[C@@H]1C[C@@H](O)c2cc(Cl)c(Cl)cc2O1` [Compound 434, (2S,4R)-6,7-dichloro-4-hydroxy-N-(3-{4-[2-(trifluoromethoxy)ethoxy]-1H-pyrazol-1-yl}bicyclo[1.1.1]pentan-1-yl)-3,4-dihydro-2H-1-benzopyran-2-carboxamide] and `O=C(NC12CC(n3cc(OCCOC(F)(F)F)cn3)(C1)C2)[C@@H]1C[C@@H](O)c2cc(Cl)c(F)cc2O1` [Compound 432, (2S,4R)-6-chloro-7-fluoro-4-hydroxy-N-(3-{4-[2-(trifluoromethoxy)ethoxy]-1H-pyrazol-1-yl}bicyclo[1.1.1]pentan-1-yl)-3,4-dihydro-2H-1-benzopyran-2-carboxamide] cannot be ordered by EC50: less than 10 nM for the first, less than 10 nM for the second.

`O=C(N[C@H]1CC[C@H](n2cc(OCCOC(F)(F)F)cn2)CC1)[C@H]1C[C@@H](O)c2cc(F)ccc2O1` [Compound 523, (2R,4R)-6-fluoro-4-hydroxy-N-[(1r,4R)-4-{4-[2-(trifluoromethoxy)ethoxy]-1H-pyrazol-1-yl}cyclohexyl]-3,4-dihydro-2H-1-benzopyran-2-carboxamide] and `O=C(N[C@H]1CC[C@H](n2cc(-c3ccc(C(F)(F)F)cn3)cn2)CC1)[C@H]1C[C@@H](O)c2cc(Cl)ccc2O1` [Compound 577, (2R,4R)-6-chloro-4-hydroxy-N-[(1r,4R)-4-{4-[5-(trifluoromethyl)pyridin-2-yl]-1H-pyrazol-1-yl}cyclohexyl]-3,4-dihydro-2H-1-benzopyran-2-carboxamide] cannot be ordered by EC50: less than 10 nM for the first, less than 10 nM for the second.

`O=C(NC12CC(n3cc(-c4ccn(C(F)(F)F)n4)cn3)(C1)C2)[C@H]1C[C@@H](O)c2cc(Cl)ccc2O1` [Compound 556, (2R,4R)-6-chloro-4-hydroxy-N-{3-[1-(trifluoromethyl)-1H,1′H-[3,4′-bipyrazol]-1′-yl]bicyclo[1.1.1]pentan-1-yl}-3,4-dihydro-2H-1-benzopyran-2-carboxamide] and `O=C(NC12CC(n3cc(-c4cnn(CC(F)(F)F)c4)cn3)(C1)C2)[C@H]1C[C@@H](O)c2cc(Cl)ccc2O1` [Compound 563, (2R,4R)-6-chloro-4-hydroxy-N-{3-[1′-(2,2,2-trifluoroethyl)-1H,1′H-[4,4′-bipyrazol]-1-yl]bicyclo[1.1.1]pentan-1-yl}-3,4-dihydro-2H-1-benzopyran-2-carboxamide] cannot be ordered by EC50: less than 10 nM for the first, less than 10 nM for the second.

`O=C(NC12CC(n3cc(OCCOC(F)(F)F)cn3)(C1)C2)[C@H]1CNc2cc(Cl)ccc2O1` [Compound 518, (2R)-6-chloro-N-(3-{4-[2-(trifluoromethoxy)ethoxy]-1H-pyrazol-1-yl}bicyclo[1.1.1]pentan-1-yl)-3,4-dihydro-2H-1,4-benzoxazine-2-carboxamide] and `O=C(NC12CC(c3ccnc(OCCOC(F)(F)F)n3)(C1)C2)[C@H]1C[C@@H](O)c2cc(Cl)ccc2O1` [Compound 525, (2R,4R)-6-chloro-4-hydroxy-N-(3-{2-[2-(trifluoromethoxy)ethoxy]pyrimidin-4-yl}bicyclo[1.1.1]pentan-1-yl)-3,4-dihydro-2H-1-benzopyran-2-carboxamide] fall in the same range of EC50: 10 to 50 nM for the first, 10 to 50 nM for the second.

First: O=C(NC12CC(n3cc(CN4CC[C@H](OC(F)(F)F)C4)cn3)(C1)C2)[C@H]1C[C@@H](O)c2cc(Cl)ccc2O1 [Compound 339, (2R,4R)-6-chloro-4-hydroxy-N-[3-(4-{[(3S)-3-(trifluoromethoxy)pyrrolidin-1-yl]methyl}-1H-pyrazol-1-yl)bicyclo[1.1.1]pentan-1-yl]-3,4-dihydro-2H-1-benzopyran-2-carboxamide]
Second: O=C(NC12CC(n3cc([C@H]4CC[C@@H](OC(F)(F)F)C4)nn3)(C1)C2)[C@H]1C[C@@H](O)c2cc(Cl)ccc2O1 (relative stereo) [Compound 540, (2R,4R)-6-chloro-4-hydroxy-N-(3-{4-[(1S*,3R*)-3-(trifluoromethoxy)cyclopentyl]-1H-1,2,3-triazol-1-yl}bicyclo[1.1.1]pentan-1-yl)-3,4-dihydro-2H-1-benzopyran-2-carboxamide]
The EC50 of the first is higher: 250 to 500 nM for the first, 10 to 50 nM for the second. The second is the more potent here.

First: O=C(NC12CC(n3cc(C(=O)N4CC(COC(F)(F)F)C4)cn3)(C1)C2)[C@H]1C[C@@H](O)c2cc(F)c(F)cc2O1 [Compound 374, (2R,4R)-6,7-difluoro-4-hydroxy-N-[3-(4-{3-[(trifluoromethoxy)methyl]azetidine-1-carbonyl}-1H-pyrazol-1-yl)bicyclo[1.1.1]pentan-1-yl]-3,4-dihydro-2H-1-benzopyran-2-carboxamide]
Second: O=C(NC12CC(c3ccc(C(=O)N4CC(COC(F)(F)F)C4)nc3)(C1)C2)[C@H]1C[C@@H](O)c2cc(Cl)ccc2O1 [Compound 537, (2R,4R)-6-chloro-4-hydroxy-N-[3-(6-{3-[(trifluoromethoxy)methyl]azetidine-1-carbonyl}pyridin-3-yl)bicyclo[1.1.1]pentan-1-yl]-3,4-dihydro-2H-1-benzopyran-2-carboxamide]
The EC50 of the first is higher: 50 to 250 nM for the first, less than 10 nM for the second. The second is the more potent here.

`COc1ccc2nn(C34CC(NC(=O)[C@H]5C[C@@H](O)c6cc(C(F)(F)F)c(F)cc6O5)(C3)C4)cc2n1` (racemic) [Compound 655, rac-(2R,4R)-7-fluoro-4-hydroxy-N-[3-(5-methoxy-2H-pyrazolo[4,3-b]pyridin-2-yl)bicyclo[1.1.1]pentan-1-yl]-6-(trifluoromethyl)-3,4-dihydro-2H-1-benzopyran-2-carboxamide] and `O=C(NC12CC(n3cc(CCCOC(F)(F)F)nn3)(C1)C2)[C@H]1C[C@@H](O)c2cc(Cl)ccc2O1` [Compound 516, (2R,4R)-6-chloro-4-hydroxy-N-(3-{4-[3-(trifluoromethoxy)propyl]-1H-1,2,3-triazol-1-yl}bicyclo[1.1.1]pentan-1-yl)-3,4-dihydro-2H-1-benzopyran-2-carboxamide] cannot be ordered by EC50: less than 10 nM for the first, less than 10 nM for the second.

`O=C(N[C@@H]1CC[C@@H](C(=O)N2CC(c3ccc(C(F)(F)F)cc3)C2)OC1)[C@H]1C[C@@H](O)c2cc(Cl)ccc2O1` [Compound 322, (2R,4R)-6-chloro-4-hydroxy-N-[(3R,6S)-6-{3-[4-(trifluoromethyl)phenyl]azetidine-1-carbonyl}oxan-3-yl]-3,4-dihydro-2H-1-benzopyran-2-carboxamide] and `O=C(NC12CC(n3cc(-c4ccc(OC(F)(F)F)cn4)cn3)(C1)C2)[C@H]1C[C@@H](O)c2cc(F)ccc2O1` (racemic) [Compound 552, rac-(2R,4R)-6-fluoro-4-hydroxy-N-(3-{4-[5-(trifluoromethoxy)pyridin-2-yl]-1H-pyrazol-1-yl}bicyclo[1.1.1]pentan-1-yl)-3,4-dihydro-2H-1-benzopyran-2-carboxamide] cannot be ordered by EC50: less than 10 nM for the first, less than 10 nM for the second.

Work on `O=C(CO[C@H]1C[C@@H](OC(F)(F)F)C1)NC12CC(NC(=O)[C@@H]3C[C@@H](O)c4cc(Cl)c(Cl)cc4O3)(C1)C2` [Compound 492, (2S,4R)-6,7-dichloro-4-hydroxy-N-[3-(2-{[(1s,3R)-3-(trifluoromethoxy)cyclobutyl]oxy}acetamido)bicyclo[1.1.1]pentan-1-yl]-3,4-dihydro-2H-1-benzopyran-2-carboxamide] yielded an EC50 of less than 10 nM.
